What all share (assay type): in vivo
Assay [1] relates to Cowpea Aphid (Aphis Craccivora). Briefly: CE.1 Cowpea aphid, comparative test. To be noted: read-out: % mortality in comparison to untreated controls. The method, then: (§1) The tables show % mortality in comparison to untreated controls.
CE.1 Cowpea Aphid (Aphis Craccivora)
Potted cowpea plants colonized with approximately 100-150 aphids of various stages were sprayed after the pest population has been recorded. Population reduction was assessed after 24, 72, and 120 hours.

The test system of assay [2] is Rice Brown Plant Hopper (Nilaparvata lugens). Briefly: CE.2 Rice brown plant hopper, comparative test. As to conditions: read-out: % mortality in comparison to untreated controls. The method, then: as §1
CE.2 Rice Brown Plant Hopper (Nilaparvata lugens)
Rice seedlings were cleaned and washed 24 hours before spraying. The active compounds were formulated in 50:50 acetone:water (vol:vol) and 0.1% vol/vol surfactant (EL 620) was added. Potted rice seedlings were sprayed with 5 ml test solution, air dried, placed in cages and inoculated with 10 adults. Treated rice plants were kept at about 28-29° C. and relative humidity of about 50-60%. Percent mortality was recorded after 72 hours.

For assay [3], the system named is Orchid Thrips (Dichromothrips Corbetti). The experiment in a line: CE.3 Orchid thrips, comparative test. As to conditions: 96 h, read-out: % mortality in comparison to untreated controls. The method, then:
as §1
CE.3 Orchid Thrips (Dichromothrips Corbetti)
Dichromothrips corbetti adults used for bioassay were obtained from a colony maintained continuously under laboratory conditions. For testing purposes, the test compound was diluted to a concentration of 300 ppm (wt compound: vol diluent) in a 1:1 mixture of acetone:water (vol:vol), plus 0.01% vol/vol Kinetic® surfactant.
Thrips potency of each compound was evaluated by using a floral-immersion technique. Plastic petri dishes were used as test arenas. All petals of individual, intact orchid flowers were dipped into treatment solution and allowed to dry. Treated flowers were placed into individual petri dishes along with 10-15 adult thrips. The petri dishes were then covered with lids. All test arenas were held under continuous light and a temperature of about 280C for duration of the assay. After 4 days, the numbers of live thrips were counted on each flower, and along inner walls of each petri dish. The level of thrips mortality was extrapolated from pre-treatment thrips numbers.

The subject of assay [4] is Rice Green Leafhopper (Nephotettix virescens). The experiment in a line: CE.5 Rice green leafhopper, comparative test. As to conditions: 3 ppm, after 72 hours, read-out: % mortality in comparison to untreated controls. The method, then:
as §1
CE.5 Rice Green Leafhopper (Nephotettix virescens)
Rice seedlings were cleaned and washed 24 hours before spraying. The active compounds were formulated in 50:50 acetone:water (vol:vol), and 0.1% vol/vol surfactant (EL 620) was added. Potted rice seedlings were sprayed with 5 ml test solution, air dried, placed in cages and inoculated with 10 adults. Treated rice plants were kept at about 28-29° C. and relative humidity of about 50-60%. Percent mortality was recorded after 72 hours.

In assay [5] the test system is Silverleaf Whitefly (Bemisia argentifolii). The experiment in a line: CE.4 Silverleaf whitefly, comparative test. To be noted: 72 h, read-out: % mortality in comparison to untreated controls. Here is the method: as §1
CE.4 Silverleaf Whitefly (Bemisia argentifolii)
The active compounds were formulated in 50:50 acetone:water (vol:vol) and 100 ppm Kinetica™ surfactant.
Selected cotton plants were grown to the cotyledon state (one plant per pot). The cotyledons were dipped into the test solution to provide complete coverage of the foliage and placed in a well-vented area to dry. Each pot with treated seedling was placed in a plastic cup and 10 to 12 whitefly adults (approximately 3-5 day old) were introduced. The insects were collected using an aspirator and a Tygon® tubing connected to a barrier pipette tip. The tip, containing the collected insects, was then gently inserted into the soil containing the treated plant, allowing insects to crawl out of the tip to reach the foliage for feeding. The cups were covered with a reusable screened lid. Test plants were maintained in the holding room at about 25° C. and about 20-40% relative humidity for 3 days avoiding direct exposure to the fluorescent light (24 hour photoperiod) to prevent trapping of heat inside the cup. Mortality was assessed 3 days after treatment of the plants.

The mortality is the share of the test organisms that died.

Each structure is given as a SMILES string. Where two headings read alike, the source gives them in different places.

As to `Cc1cc(C2=NSC(c3cc(Cl)cc(Cl)c3)(C(F)(F)F)C2)ccc1C(=O)NC1CCN(CC(F)(F)F)C1=O` (stereo not shown) [No. 2-195 of WO 2013/092943, reference compound], the mortality at 300 ppm in assay [1] (at 300 ppm, sprayed cowpea plants) was 0%. Besides, the mortality at 10 ppm in assay [2] (10 ppm, after 72 hours) stood at 25%; in assay [3] (10 ppm, after 4 days), 0%. Moreover, the mortality at 3 ppm in assay [4] came out at 0%.
On to `CCN1CCC(NC(=O)c2ccc(C3=CCC(c4ccc(F)c(Cl)c4)(C(F)(F)F)C3)cc2Cl)C1=O` (stereo not shown) [No. I-9 of WO 2017/016883], for which the mortality at 10 ppm in assay [1] (10 ppm, sprayed cowpea plants) was 25%; in assay [2] (10 ppm, after 72 hours), 25%; in assay [5] (10 ppm, 3 days after treatment) it was 25%; in assay [3] (10 ppm, after 4 days), 0%. The mortality at 3 ppm in assay [4] is 0%.
As for `Cc1cc(C2=NOC(c3cc(Cl)cc(Cl)c3)(C(F)(F)F)C2)ccc1C(=O)NC1CCN(CC(F)(F)F)C1=O` (stereo not shown) [No. 5-405 of US 20070066617, reference compound], the mortality at 10 ppm in assay [1] worked out at 25%; in assay [2] (72 h), 0%; in assay [5] it was 25%; in assay [3], 0%.

The values above are taken from patent US20200190073A1, “SUBSTITUTED SUCCINIMIDE DERIVATIVES AS PESTICIDES” (BASF SE, priority 2017, published 2020).
